Publication PMC10364322, “Evaluation of chronic drug-induced electrophysiological and cytotoxic effects using human-induced pluripotent stem cell-derived cardiomyocytes (hiPSC-CMs)” (Frontiers in Pharmacology, 2023)
Like-named read-outs stand apart in the source and are kept apart here.

System: hiPSC-CMs (iCell-Cardiomyocytes^2)
Summary of the method: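 Spontaneous field potentials and impedance recorded by MEA at 37°C, 5% CO2 in hiPSC-CM monolayers (50 K/well, fibronectin-coated), 5-min baseline before compound; final DMSO 0.1%. Values are percent change from baseline, mean ± SD, compared with DMSO by Wilcoxon-Mann Whitney, interpreted against DMSO tolerance intervals.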

SMILES: C#Cc1cccc(Nc2ncnc3cc(OCCOC)c(OCCOC)cc23)c1 [Erlotinib]
- BR (beat rate) % change from baseline (0.3 µM, 2h): 3±3%
- Beating below threshold, number of observations/total well numbers (0.3 µM, 2h): 0/5
- Cessation of beating, number of observations/total well numbers (0.3 µM, 2h): 0/5
- EAD, number of observations/total well numbers (0.3 µM, 2h): 0/5
- FPD (field-potential duration), % change from baseline (0.3 µM, 2h): 0.6±0.9%
- FPDc (field-potential duration corrected by beat-rate), % change from baseline (0.3 µM, 2h): 1.6±1.1%
- Flat T-wave-like, number of observations/total well numbers (0.3 µM, 2h): 0/5
- BR (beat rate) % change from baseline (0.3 µM, 24h): -1±5%
- Beating below threshold, number of observations/total well numbers (0.3 µM, 24h): 0/5
- Cessation of beating, number of observations/total well numbers (0.3 µM, 24h): 0/5
- EAD, number of observations/total well numbers (0.3 µM, 24h): 0/5
- FPD (field-potential duration), % change from baseline (0.3 µM, 24h): 7.8±3.3%
- FPDc (field-potential duration corrected by beat-rate), % change from baseline (0.3 µM, 24h): 7.4±1.9%
- Flat T-wave-like, number of observations/total well numbers (0.3 µM, 24h): 0/5
- BR (beat rate) % change from baseline (0.3 µM, 48h): -12±1%
- Beating below threshold, number of observations/total well numbers (0.3 µM, 48h): 0/5
- Cessation of beating, number of observations/total well numbers (0.3 µM, 48h): 0/5
- EAD, number of observations/total well numbers (0.3 µM, 48h): 0/5
- FPD (field-potential duration), % change from baseline (0.3 µM, 48h): 16.2±1.3%
- FPDc (field-potential duration corrected by beat-rate), % change from baseline (0.3 µM, 48h): 11.5±0.7%
- Flat T-wave-like, number of observations/total well numbers (0.3 µM, 48h): 0/5
- BR (beat rate) % change from baseline (0.3 µM, 72h): -8±2%
- Beating below threshold, number of observations/total well numbers (0.3 µM, 72h): 0/5
- Cessation of beating, number of observations/total well numbers (0.3 µM, 72h): 0/5
- EAD, number of observations/total well numbers (0.3 µM, 72h): 0/5
- FPD (field-potential duration), % change from baseline (0.3 µM, 72h): 14.6±3.1%
- FPDc (field-potential duration corrected by beat-rate), % change from baseline (0.3 µM, 72h): 11.4±2.8%
- Flat T-wave-like, number of observations/total well numbers (0.3 µM, 72h): 0/5
- BR (beat rate) % change from baseline (0.3 µM, 96h): -14±1%
- Beating below threshold, number of observations/total well numbers (0.3 µM, 96h): 0/5
- Cessation of beating, number of observations/total well numbers (0.3 µM, 96h): 0/5
- EAD, number of observations/total well numbers (0.3 µM, 96h): 0/5
- FPD (field-potential duration), % change from baseline (0.3 µM, 96h): 21.2±1.9%
- FPDc (field-potential duration corrected by beat-rate), % change from baseline (0.3 µM, 96h): 15.1±1.6%
- Flat T-wave-like, number of observations/total well numbers (0.3 µM, 96h): 0/5
- BR (beat rate) % change from baseline (1 µM, 2h): 1±1%
- Beating below threshold, number of observations/total well numbers (1 µM, 2h): 0/5
- Cessation of beating, number of observations/total well numbers (1 µM, 2h): 0/5
- EAD, number of observations/total well numbers (1 µM, 2h): 0/5
- FPD (field-potential duration), % change from baseline (1 µM, 2h): 3.4±1%
- FPDc (field-potential duration corrected by beat-rate), % change from baseline (1 µM, 2h): 3.8±0.8%
- Flat T-wave-like, number of observations/total well numbers (1 µM, 2h): 0/5
- BR (beat rate) % change from baseline (1 µM, 24h): 0±5%
- Beating below threshold, number of observations/total well numbers (1 µM, 24h): 0/5
- Cessation of beating, number of observations/total well numbers (1 µM, 24h): 0/5
- EAD, number of observations/total well numbers (1 µM, 24h): 0/5
- FPD (field-potential duration), % change from baseline (1 µM, 24h): 5.5±5.8%
- FPDc (field-potential duration corrected by beat-rate), % change from baseline (1 µM, 24h): 5.6±4%
- Flat T-wave-like, number of observations/total well numbers (1 µM, 24h): 0/5
- BR (beat rate) % change from baseline (1 µM, 48h): -13±3%
- Beating below threshold, number of observations/total well numbers (1 µM, 48h): 0/5
- Cessation of beating, number of observations/total well numbers (1 µM, 48h): 0/5
- EAD, number of observations/total well numbers (1 µM, 48h): 0/5
- FPD (field-potential duration), % change from baseline (1 µM, 48h): 16.6±3.6%
- FPDc (field-potential duration corrected by beat-rate), % change from baseline (1 µM, 48h): 11.3±2.2%
- Flat T-wave-like, number of observations/total well numbers (1 µM, 48h): 0/5
- BR (beat rate) % change from baseline (1 µM, 72h): -9±2%
- Beating below threshold, number of observations/total well numbers (1 µM, 72h): 0/5
- Cessation of beating, number of observations/total well numbers (1 µM, 72h): 0/5
- EAD, number of observations/total well numbers (1 µM, 72h): 0/5
- FPD (field-potential duration), % change from baseline (1 µM, 72h): 14.7±3.9%
- FPDc (field-potential duration corrected by beat-rate), % change from baseline (1 µM, 72h): 11±3.3%
- Flat T-wave-like, number of observations/total well numbers (1 µM, 72h): 0/5
- BR (beat rate) % change from baseline (1 µM, 96h): -16±2%
- Beating below threshold, number of observations/total well numbers (1 µM, 96h): 0/5
- Cessation of beating, number of observations/total well numbers (1 µM, 96h): 0/5
- EAD, number of observations/total well numbers (1 µM, 96h): 0/5
- FPD (field-potential duration), % change from baseline (1 µM, 96h): 22.4±3.5%
- FPDc (field-potential duration corrected by beat-rate), % change from baseline (1 µM, 96h): 15.1±2.5%
- Flat T-wave-like, number of observations/total well numbers (1 µM, 96h): 0/5
- BR (beat rate) % change from baseline (3 µM, 72h): -10±2%
- Beating below threshold, number of observations/total well numbers (3 µM, 72h): 0/5
- Cessation of beating, number of observations/total well numbers (3 µM, 72h): 0/5
- EAD, number of observations/total well numbers (3 µM, 72h): 0/5
- FPD (field-potential duration), % change from baseline (3 µM, 72h): 10.9±3.3%
- FPDc (field-potential duration corrected by beat-rate), % change from baseline (3 µM, 72h): 7.1±2.8%
- Flat T-wave-like, number of observations/total well numbers (3 µM, 72h): 0/5
- BR (beat rate) % change from baseline (3 µM, 96h): -18±2%
- Beating below threshold, number of observations/total well numbers (3 µM, 96h): 0/5
- Cessation of beating, number of observations/total well numbers (3 µM, 96h): 0/5
- EAD, number of observations/total well numbers (3 µM, 96h): 0/5
- FPD (field-potential duration), % change from baseline (3 µM, 96h): 18.9±1.9%
- FPDc (field-potential duration corrected by beat-rate), % change from baseline (3 µM, 96h): 11.7±1.1%
- Flat T-wave-like, number of observations/total well numbers (3 µM, 96h): 0/5
- BR (beat rate) % change from baseline (3 µM, 2h): 1±2%
- Beating below threshold, number of observations/total well numbers (3 µM, 2h): 0/5
- Cessation of beating, number of observations/total well numbers (3 µM, 2h): 0/5
- EAD, number of observations/total well numbers (3 µM, 2h): 0/5
- FPD (field-potential duration), % change from baseline (3 µM, 2h): 2±3%
- FPDc (field-potential duration corrected by beat-rate), % change from baseline (3 µM, 2h): 2.4±2.4%
- Flat T-wave-like, number of observations/total well numbers (3 µM, 2h): 0/5
- BR (beat rate) % change from baseline (3 µM, 24h): 2±3%
- Beating below threshold, number of observations/total well numbers (3 µM, 24h): 0/5
- Cessation of beating, number of observations/total well numbers (3 µM, 24h): 0/5
- EAD, number of observations/total well numbers (3 µM, 24h): 0/5
- FPD (field-potential duration), % change from baseline (3 µM, 24h): 0.1±4%
- FPDc (field-potential duration corrected by beat-rate), % change from baseline (3 µM, 24h): 0.7±3%
- Flat T-wave-like, number of observations/total well numbers (3 µM, 24h): 0/5
- BR (beat rate) % change from baseline (3 µM, 48h): -13±3%
- Beating below threshold, number of observations/total well numbers (3 µM, 48h): 0/5
- Cessation of beating, number of observations/total well numbers (3 µM, 48h): 0/5
- EAD, number of observations/total well numbers (3 µM, 48h): 0/5
- FPD (field-potential duration), % change from baseline (3 µM, 48h): 11±2.4%
- FPDc (field-potential duration corrected by beat-rate), % change from baseline (3 µM, 48h): 5.9±1.1%
- Flat T-wave-like, number of observations/total well numbers (3 µM, 48h): 0/5
- wells with flat T-wave (10 µM (highest concentration)): One well on 5
- BR (beat rate) % change from baseline (10 µM, 2h): 1±1%
- Beating below threshold, number of observations/total well numbers (10 µM, 2h): 0/5
- Cessation of beating, number of observations/total well numbers (10 µM, 2h): 0/5
- EAD, number of observations/total well numbers (10 µM, 2h): 0/5
- FPD (field-potential duration), % change from baseline (10 µM, 2h): 3.5±0.9%
- FPDc (field-potential duration corrected by beat-rate), % change from baseline (10 µM, 2h): 3.9±1.1%
- Flat T-wave-like, number of observations/total well numbers (10 µM, 2h): 0/5
- BR (beat rate) % change from baseline (10 µM, 24h): -1±7%
- Beating below threshold, number of observations/total well numbers (10 µM, 24h): 0/5
- Cessation of beating, number of observations/total well numbers (10 µM, 24h): 0/5
- EAD, number of observations/total well numbers (10 µM, 24h): 0/5
- FPD (field-potential duration), % change from baseline (10 µM, 24h): 7.2±5.8%
- FPDc (field-potential duration corrected by beat-rate), % change from baseline (10 µM, 24h): 6.3±4.1%
- Flat T-wave-like, number of observations/total well numbers (10 µM, 24h): 1/5
- BR (beat rate) % change from baseline (10 µM, 48h): -15±4%
- Beating below threshold, number of observations/total well numbers (10 µM, 48h): 0/5
- Cessation of beating, number of observations/total well numbers (10 µM, 48h): 0/5
- EAD, number of observations/total well numbers (10 µM, 48h): 0/5
- FPD (field-potential duration), % change from baseline (10 µM, 48h): 15.4±2.7%
- FPDc (field-potential duration corrected by beat-rate), % change from baseline (10 µM, 48h): 8.7±1.6%
- Flat T-wave-like, number of observations/total well numbers (10 µM, 48h): 1/5
- BR (beat rate) % change from baseline (10 µM, 72h): -13±4%
- Beating below threshold, number of observations/total well numbers (10 µM, 72h): 0/5
- Cessation of beating, number of observations/total well numbers (10 µM, 72h): 0/5
- EAD, number of observations/total well numbers (10 µM, 72h): 0/5
- FPD (field-potential duration), % change from baseline (10 µM, 72h): 16.4±6.7%
- FPDc (field-potential duration corrected by beat-rate), % change from baseline (10 µM, 72h): 10.6±6%
- Flat T-wave-like, number of observations/total well numbers (10 µM, 72h): 1/5
- BR (beat rate) % change from baseline (10 µM, 96h): -19±2%
- Beating below threshold, number of observations/total well numbers (10 µM, 96h): 0/5
- Cessation of beating, number of observations/total well numbers (10 µM, 96h): 0/5
- EAD, number of observations/total well numbers (10 µM, 96h): 0/5
- FPD (field-potential duration), % change from baseline (10 µM, 96h): 25±8.1%
- FPDc (field-potential duration corrected by beat-rate), % change from baseline (10 µM, 96h): 16±6.6%
- Flat T-wave-like, number of observations/total well numbers (10 µM, 96h): 1/5
- arrhythmic-like events (all concentrations tested): no arrhythmic-like events were observed
- changes in BR (all concentrations tested): nor significant changes in BR
- prolongation of FPD / FPDc (all concentrations tested): did not observe any physiologically relevant prolongation in FPD and FPDc
- effect on hiPSC-CMs electrophysiology or cytotoxicity (up to ∼ three times the estimated fCmax): did not detect any significant effect on hiPSC-CMs electrophysiology or cytotoxicity
